From PMC11091976, “Shorter Peptide Nucleic Acid Probes Improve Affibody-Mediated Peptide Nucleic Acid-Based Pretargeting” (ACS Pharmacology & Translational Science, 2024)
Like-named read-outs stand apart in the source and are kept apart here. Marks after values point to notes of the source that are not given here. Values belong to the molecule of their own block, whether it stands above or below them.

Legend:
[1] = cited from earlier work
Protocol: Table 4 ^177Lu-Labeling of PNA-Based Probes and In Vitro Stability | column: stability in PBS, 37 °C, 1 h; stability (×500 EDTA), 37 °C, 1 h

[2] = test system: HER2 xenograft mouse model; details: in vivo; cited from earlier work
Protocol: In our recent study,[29] we introduced a second-generation of pretargeting probes featuring a common 15-mer affibody-PNA conjugate, ZHER2:343-HP15, and three complementary secondary probes of varying lengths: a 9-mer (HP16), a 12-mer (HP17), and a 15-mer (HP18). […] At 4 h postinjection, there were no significant differences in the tumor-to-kidney ratios among the three different pretargeting groups.

[3] = assay type: physicochemical
Protocol: Table 4 summarizes the radiochemical yield (RCY), purity, and stability test results for all ^177Lu-labeled probes in this study. […] Such radiolabeling yield necessitated purification to achieve the requisite radiochemical purity of over 95%. Purification was conducted using a NAP-5 column, eluted with 1% BSA in PBS, resulting in radiochemical purities of 99 ± 1.7% for [^177Lu]Lu-Z-HP9 and 98.5 ± 2.2% for [^177Lu]Lu-Z-HP12, respectively. […] Thus, it was essential that the label was stable, and the compound was pure. […] The RCY for the secondary probes exceeded 97%, and consequently, further purification was deemed unnecessary for in vitro and in vivo studies. Importantly, all probes labeled with ^177Lu remained stable in the presence of an excess amount of EDTA and in PBS as control after incubation at 37 °C for 1 h.
Radiolabeling of primary and secondary probes with ^177Lu was performed using a previously described method.[29] Briefly, 100 μL of 0.2 M of NH4Ac, pH 5.5 was added to 30 μg of the probe (100 μL of 0.3 mg/mL stock in NH4Ac) to provide right pH for the labeling. The mixture was heated at 95 °C for 10 min, followed by sonication for 5 min, and reheating at 95 °C for 10 min to ensure complete dissolving. […] RCY was then analyzed using iTLC developed with 0.2 M citric acid, pH 2.0. […] Samples were run in triplicates and analyzed by radio-iTLC.

[4] = biological target: Z-HP15; test: SPR off-rate screening (single-cycle kinetics), immobilized Z-HP15; assay type: binding; details: primary probe HP15 (immobilized Z-HP15), 25 °C, PBS-T pH 7.4, 120 nM HP16/HP20 or 362 nM HP21/HP19, dissociation 150 min, 1:1 model, duplicates
Protocol: (§1) The stability of new pretargeting probe combinations was assessed using SPR, and duplex melting temperatures were measured with UV–vis spectroscopy. In SPR, a high concentration of the secondary probe was injected over immobilized primary agents, and the dissociation of the hybridized complexes was monitored over 150 min (see Figures 3A, S22, and Table 2).
(§2) We utilized SPR on a Biacore T200 instrument (Cytiva) to examine how secondary PNA probes (6-mer HP19, 7-mer HP21, 8-mer HP20, and 9-mer HP16) bind to primary agents. These experiments were conducted using dextran-coated CM5 sensor chips and PBS-T buffer at pH 7.4. The ligands were immobilized through a standard EDC/NHS coupling method, and the chip surface was sealed with ethanolamine. A reference surface with no primary agent was also included.
(§3) For ranking the off-rate (kd) of the secondary probes, we employed single-cycle kinetics (SCK) at 25 °C with a flow rate of 50 μL/min. […] Secondary PNA probes were injected at various concentrations, and dissociation was monitored for 10,000 s. To regenerate the chip surface, we used two 30 s injections of 10 mM glycine-HCl, pH 1.5.
(§4) All SPR experiments were performed in duplicate, and data analysis was conducted using the Biacore T200 Evaluation software version 2.0 with a 1:1 binding model.
(§5) Figure S22: Representative SPR sensorgrams of the dissociation phase of HP16 (9-mer), HP20 (8-mer), HP21 (7-mer) and HP19 […]
(§6) After injection with the secondary probe
(§7) (120 nM of HP16 and HP20 or 362 nM of HP21 and HP19) the dissociation of the formed complex was followed for 150 minutes. All experiments were done in duplicates, and the data presented is double-referenced (reference channel and buffer injection are subtracted).
(§8) (1 picture or pasted object on this page, not shown here)

[5] = biological target: Z-HP12; test: SPR off-rate screening (single-cycle kinetics), immobilized Z-HP12; assay type: binding; details: primary probe HP12 (immobilized Z-HP12), 25 °C, PBS-T pH 7.4, 120 nM HP16/HP20 or 362 nM HP21/HP19, dissociation 150 min, 1:1 model, duplicates
Protocol: as §1, §2, §3, §4, §5, §6, §7, §8

[6] = test system: Z-HP15; test: Multicycle kinetic SPR, immobilized Z-HP15; assay type: binding; details: MCK SPR
Protocol: M^–1 s^–1, as well as the slowest dissociation rate constant (kd) at 3.4 × 10^–5 s^–1.
as §2
(§9) Association and dissociation times were set at 700 and 1800 s, respectively, with regeneration accomplished through a 30 s injection of 10 mM glycine-HCl, pH 1.5.
as §4

[7] = test system: Z-HP9; test: Multicycle kinetic SPR, immobilized Z-HP9; assay type: binding; details: MCK SPR
Protocol: as §2, §9, §4

Molecule: NC(=O)[C@H](Cc1ccc(O)cc1)NC(=O)[C@H](CCC(=O)O)NC(=O)[C@H](CCC(=O)O)NC(=O)CN(CCNC(=O)CN(CCNC(=O)CN(CCNC(=O)CN(CCNC(=O)CN(CCNC(=O)CN(CCNC(=O)CN(CCNC(=O)CN(CCNC(=O)CN(CCNC(=O)[C@H](CO)NC(=O)[C@H](CO)NC(=O)COCCOCCNC(=O)CN1CCN(CC(=O)O)CCN(CC(=O)O)CCN(CC(=O)O)CC1)C(=O)Cn1cnc2c(N)ncnc21)C(=O)Cn1cnc2c(N)ncnc21)C(=O)Cn1ccc(N)nc1=O)C(=O)Cn1cnc2c(N)ncnc21)C(=O)Cn1ccc(N)nc1=O)C(=O)Cn1ccc(N)nc1=O)C(=O)Cn1cnc2c(N)ncnc21)C(=O)Cn1cnc2c(=O)[nH]c(N)nc21)C(=O)Cn1cnc2c(=O)[nH]c(N)nc21 [[^177Lu]Lu-HP16, metal not drawn]
- stability (×500 EDTA), 37 °C, 1 h [1]: 100 ± 0 ^a
- stability in PBS, 37 °C, 1 h [1]: 100 ± 0 ^a
- kidney uptake [2]: 6 ± 1 % ID/g

Molecule: NC(=O)[C@H](Cc1ccc(O)cc1)NC(=O)[C@H](CCC(=O)O)NC(=O)[C@H](CCC(=O)O)NC(=O)CN(CCNC(=O)CN(CCNC(=O)CN(CCNC(=O)CN(CCNC(=O)CN(CCNC(=O)CN(CCNC(=O)CN(CCNC(=O)CN(CCNC(=O)[C@H](CO)NC(=O)[C@H](CO)NC(=O)COCCOCCNC(=O)CN1CCN(CC(=O)O)CCN(CC(=O)O)CCN(CC(=O)O)CC1)C(=O)Cn1cnc2c(N)ncnc21)C(=O)Cn1ccc(N)nc1=O)C(=O)Cn1cnc2c(N)ncnc21)C(=O)Cn1ccc(N)nc1=O)C(=O)Cn1ccc(N)nc1=O)C(=O)Cn1cnc2c(N)ncnc21)C(=O)Cn1cnc2c(=O)[nH]c(N)nc21)C(=O)Cn1cnc2c(=O)[nH]c(N)nc21 [[^177Lu]Lu-HP20, metal not drawn]
- stability (×500 EDTA), 37 °C, 1 h [3]: 99.5 ± 0.7
- stability in PBS, 37 °C, 1 h [3]: 100 ± 0

- kd [4]: 1.2 × 10^–5 s^–1
- kd [5]: 1.3 × 10^–5 s^–1
- Kd ([6]; primary probe HP15, 25 °C): 0.32 nM
- kd ([6]; primary probe HP15, 25 °C): 3.4 × 10^–5 s^–1
- Kd ([6]; primary probe HP15, 37 °C): 0.44 nM
- kd ([6]; primary probe HP15, 37 °C): 8.1 × 10^–5 s^–1
- Kd ([7]; primary probe HP9, 25 °C): 0.27 nM
- kd ([7]; primary probe HP9, 25 °C): 4.8 × 10^–5 s^–1
- Kd ([7]; primary probe HP9, 37 °C): 0.39 nM
- kd ([7]; primary probe HP9, 37 °C): 1.1 × 10^–4 s^–1
Molecule: DOTA-AEEA-SS-aacaccagg-EEY-NH2 [HP16, 9-mer secondary PNA probe with DOTA]
- ka ([6]; primary probe HP15 (Z-HP15 immobilized), 25 °C, 1.4-70 nM, 1:1 model, duplicates): 1.0 × 10^5 M^–1 s^–1
- ka ([6]; primary probe HP15, 37 °C): 1.8 × 10^5 M^–1 s^–1
- ka ([7]; primary probe HP9 (Z-HP9 immobilized), 25 °C, 1.4-70 nM, 1:1 model, duplicates): 1.8 × 10^5 M^–1 s^–1
- ka ([7]; primary probe HP9, 37 °C): 2.9 × 10^5 M^–1 s^–1
